Reference: patent publication EP4477653A1 (Perha Pharmaceuticals, priority 2023, dated 2024)

Each compound was assayed against T1, human recombinant A3AR (expressed in HEK-293 cells) (Homo sapiens, UniProt P0DMS8) (assay: Adenosine receptors antagonism assay (Eurofins), [125I]-AB-MECA radioligand competition). Details: [125I]-AB-MECA 0.15 nM, r.t., 120 min; IC50 from dose-response curves; read-out: Potency Class A3AR.
T1 construct: host or cells: HEK-293 cells
T1 sequence (P0DMS8 1-318): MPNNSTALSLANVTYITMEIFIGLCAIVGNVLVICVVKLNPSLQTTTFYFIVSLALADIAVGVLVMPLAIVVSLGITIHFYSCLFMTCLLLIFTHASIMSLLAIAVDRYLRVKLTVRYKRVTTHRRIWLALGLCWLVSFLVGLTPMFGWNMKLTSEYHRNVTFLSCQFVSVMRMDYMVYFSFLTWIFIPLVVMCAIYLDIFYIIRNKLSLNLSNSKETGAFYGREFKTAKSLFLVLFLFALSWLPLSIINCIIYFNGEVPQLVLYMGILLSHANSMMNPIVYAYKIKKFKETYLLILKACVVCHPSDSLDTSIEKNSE
Format: binding

Row | SMILES | IC50 [µM]
1 | CC(C)c1nnc2c(NCc3ccccc3O)cc(N[C@@H]3CCCOC3)nn12 [compound 43, 2-[[[3-isopropyl-6-[[(3R)-tetrahydropyran-3-yl]amino]-[1,2,4]triazolo[4,3-b]pyridazin-8-yl]amino]methyl]phenol] | 0.01 to 0.1
2 | CC(C)c1nnc2c(NCc3ccccc3O)cc(NC3CCOCC3)nn12 [compound 44, 2-[[[3-isopropyl-6-(tetrahydropyran-4-ylamino)-[1,2,4]triazolo[4,3-b]pyridazin-8-yl]amino]methyl]phenol] | 0.01 to 0.1
3 | CC(C)c1nnc2c(NCc3ccccn3)cc(NC3CC(F)(F)C3)nn12 [compound 54, N6-(3,3-difluorocyclobutyl)-3-isopropyl-N8-(2-pyridylmethyl)-[1,2,4]triazolo[4,3-b]pyridazine-6,8-diamine] | 0.01 to 0.1
4 | CC(C)c1nnc2c(NCc3ccccn3)cc(NC3CCC(F)(F)CC3)nn12 [compound 55, N6-(4,4-difluorocyclohexyl)-3-isopropyl-N8-(2-pyridylmethyl)-[1,2,4]triazolo[4,3-b]pyridazine-6,8-diamine] | 0.01 to 0.1
5 | CCC(CC)Nc1cc(NCc2ccccn2)c2nncn2n1 [compound 57, N6-(1-ethylpropyl)-N8-(2-pyridylmethyl)-[1,2,4]triazolo[4,3-b]pyridazine-6,8-diamine] | 0.1 to 1
6 | CCC(CC)Nc1cc(NCc2ccccn2)c2nnc(C)n2n1 [compound 58, N6-(1-ethylpropyl)-3-methyl-N8-(2-pyridylmethyl)-[1,2,4]triazolo[4,3-b]pyridazine-6,8-diamine] | 0.01 to 0.1
7 | CCCc1nnc2c(NCc3ccccn3)cc(NC(CC)CC)nn12 [compound 60, N6-(1-ethylpropyl)-3-propyl-N8-(2-pyridylmethyl)-[1,2,4]triazolo[4,3-b]pyridazine-6,8-diamine] | 0.01 to 0.1
8 | CCC(CC)Nc1cc(NCc2ccccn2)c2nnc(C(C)(C)C)n2n1 [compound 61, 3-tert-butyl-N6-(1-ethylpropyl)-N8-(2-pyridylmethyl)-[1,2,4]triazolo[4,3-b]pyridazine-6,8-diamine] | 0.01 to 0.1
9 | CCC(CC)Nc1cc(NCc2ccccn2)c2nnc(C3CCC3)n2n1 [compound 63, 3-cyclobutyl-N6-(1-ethylpropyl)-N8-(2-pyridylmethyl)-[1,2,4]triazolo[4,3-b]pyridazine-6,8-diamine] | 0.001 to 0.01
10 | CCC(CC)Nc1cc(NCc2ccccn2)c2nnc(C3CCCC3)n2n1 [compound 64, 3-cyclopentyl-N6-(1-ethylpropyl)-N8-(2-pyridylmethyl)-[1,2,4]triazolo[4,3-b]pyridazine-6,8-diamine] | 0.01 to 0.1
11 | CCC(CC)Nc1cc(NCc2ccccn2)c2nnc(C3CCCCC3)n2n1 [compound 65, 3-cyclohexyl-N6-(1-ethylpropyl)-N8-(2-pyridylmethyl)-[1,2,4]triazolo[4,3-b]pyridazine-6,8-diamine] | 0.1 to 1
12 | CCC(CC)Nc1cc(NCc2ccccn2)c2nnc(-c3ccccc3)n2n1 [compound 66, N6-(1-ethylpropyl)-3-phenyl-N8-(2-pyridylmethyl)-[1,2,4]triazolo[4,3-b]pyridazine-6,8-diamine] | 0.01 to 0.1
13 | CCC(CC)Nc1cc(NCc2ccccn2)c2nnc(C(C)CC)n2n1 (stereo not shown) [compound 67, N6-(1-ethylpropyl)-N8-(2-pyridylmethyl)-3-sec-butyl-[1,2,4]triazolo[4,3-b]pyridazine-6,8-diamine] | 0.001 to 0.01
14 | CCC(CC)Nc1cc(NCc2ccccn2)c2nnc(C(CC)CC)n2n1 [compound 68, N6,3-bis(1-ethylpropyl)-N8-(2-pyridylmethyl)-[1,2,4]triazolo[4,3-b]pyridazine-6,8-diamine] | 0.001 to 0.01
15 | CCC(CC)Nc1cc(NCc2ccccn2)c2nnc(CC(C)C)n2n1 [compound 69, N6-(1-ethylpropyl)-3-isobutyl-N8-(2-pyridylmethyl)-[1,2,4]triazolo[4,3-b]pyridazine-6,8-diamine] | 0.01 to 0.1
16 | CCC(CC)Nc1cc(NCc2ccccn2)c2nnc(-c3ccccn3)n2n1 [compound 70, N6-(1-ethylpropyl)-3-(2-pyridyl)-N8-(2-pyridylmethyl)-[1,2,4]triazolo[4,3-b]pyridazine-6,8-diamine] | 0.1 to 1
17 | CCC(CC)Nc1cc(NCc2ccccn2)c2nnc(-c3cccnc3)n2n1 [compound 71, N6-(1-ethylpropyl)-3-(3-pyridyl)-N8-(2-pyridylmethyl)-[1,2,4]triazolo[4,3-b]pyridazine-6,8-diamine] | 0.01 to 0.1
18 | CCC(CC)Nc1cc(NCc2ccccn2)c2nnc(-c3ccncc3)n2n1 [compound 72, N6-(1-ethylpropyl)-3-(4-pyridyl)-N8-(2-pyridylmethyl)-[1,2,4]triazolo[4,3-b]pyridazine-6,8-diamine] | 0.01 to 0.1
19 | CCC(CC)Nc1cc(NCc2ccccc2OC)c2nnc(C(C)C)n2n1 [compound 73, N6-(1-ethylpropyl)-3-isopropyl-N8-[(2-methoxyphenyl)methyl]-[1,2,4]triazolo[4,3-b]pyridazine-6,8-diamine] | 0.001 to 0.01
20 | CC[C@H](CO)Nc1cc(NCc2ccc(N)cc2)c2nnc(C(C)C)n2n1 [compound 74, (2R)-2-[[8-[(4-aminophenyl)methylamino]-3-isopropyl-[1,2,4]triazolo[4,3-b]pyridazin-6-yl]amino]butan-1-ol] | 0.01 to 0.1
21 | CCC(CC)Nc1cc(NCc2ccc(N)cc2)c2nnc(C(C)C)n2n1 [compound 75, N8-[(4-aminophenyl)methyl]-N6-(1-ethylpropyl)-3-isopropyl-[1,2,4]triazolo[4,3-b]pyridazine-6,8-diamine] | 0.001 to 0.01
22 | CCC(CC)Nc1cc(NCc2cccc(N)c2)c2nnc(C(C)C)n2n1 [compound 76, N8-[(3-aminophenyl)methyl]-N6-(1-ethylpropyl)-3-isopropyl-[1,2,4]triazolo[4,3-b]pyridazine-6,8-diamine] | 0.001 to 0.01
23 | CCC(CC)Nc1cc(NCc2ccccc2N)c2nnc(C(C)C)n2n1 [compound 77, N8-[(2-aminophenyl)methyl]-N6-(1-ethylpropyl)-3-isopropyl-[1,2,4]triazolo[4,3-b]pyridazine-6,8-diamine] | 0.01 to 0.1
24 | CCC(CC)Nc1cc(NCc2cc3ccccc3[nH]2)c2nnc(C(C)C)n2n1 [compound 78, N6-(1-ethylpropyl)-N8-(1H-indol-2-ylmethyl)-3-isopropyl-[1,2,4]triazolo[4,3-b]pyridazine-6,8-diamine] | 0.01 to 0.1

Now from value to compound:

Row | IC50 [µM] | SMILES
25 | 0.001 to 0.01 | CCC(CC)Nc1cc(NCc2ccc(O)cc2)c2nnc(C(C)C)n2n1 [compound 42, 4-[[[6-(1-ethylpropylamino)-3-isopropyl-[1,2,4]triazolo[4,3-b]pyridazin-8-yl]amino]methyl]phenol]
26 | 0.001 to 0.01 | CCC(CC)Nc1cc(Nc2ccccc2)c2nnc(C(C)C)n2n1 [compound 45, N6-(1-ethylpropyl)-3-isopropyl-N8-phenyl-[1,2,4]triazolo[4,3-b]pyridazine-6,8-diamine]
27 | < 0.001 | CCC(CC)Nc1cc(Nc2ccccn2)c2nnc(C(C)C)n2n1 [compound 46, N6-(1-ethylpropyl)-3-isopropyl-N8-(2-pyridyl)-[1,2,4]triazolo[4,3-b]pyridazine-6,8-diamine]
28 | < 0.001 | CCC(CC)Nc1cc(Nc2cccnc2)c2nnc(C(C)C)n2n1 [compound 47, N6-(1-ethylpropyl)-3-isopropyl-N8-(3-pyridyl)-[1,2,4]triazolo[4,3-b]pyridazine-6,8-diamine]
29 | 0.001 to 0.01 | CCC(CC)Nc1cc(Nc2ccncc2)c2nnc(C(C)C)n2n1 [compound 48, N6-(1-ethylpropyl)-3-isopropyl-N8-(4-pyridyl)-[1,2,4]triazolo[4,3-b]pyridazine-6,8-diamine]
30 | 0.001 to 0.01 | CCC(CC)Nc1cc(NCc2ccncc2)c2nnc(C(C)C)n2n1 [compound 49, N6-(1-ethylpropyl)-3-isopropyl-N8-(4-pyridylmethyl)-[1,2,4]triazolo[4,3-b]pyridazine-6,8-diamine]
31 | 0.001 to 0.01 | CCC(CC)Nc1cc(NCc2cccnc2)c2nnc(C(C)C)n2n1 [compound 50, N6-(1-ethylpropyl)-3-isopropyl-N8-(3-pyridylmethyl)-[1,2,4]triazolo[4,3-b]pyridazine-6,8-diamine]
32 | 0.001 to 0.01 | CCC(CC)Nc1cc(NCc2ccccn2)c2nnc(C(C)C)n2n1 [compound 51, N6-(1-ethylpropyl)-3-isopropyl-N8-(2-pyridylmethyl)-[1,2,4]triazolo[4,3-b]pyridazine-6,8-diamine]
33 | 0.001 to 0.01 | CC(C)c1nnc2c(NCc3ccccn3)cc(NC(C)(C)C)nn12 [compound 52, N6-tert-butyl-3-isopropyl-N8-(2-pyridylmethyl)-[1,2,4]triazolo[4,3-b]pyridazine-6,8-diamine]
34 | 0.001 to 0.01 | CC(C)c1nnc2c(NCc3ccccn3)cc(NC3CC4(CCC4)C3)nn12 [compound 53, 3-isopropyl-N8-(2-pyridylmethyl)-N6-spiro[3.3]heptan-2-yl-[1,2,4]triazolo[4,3-b]pyridazine-6,8-diamine]
35 | 0.001 to 0.01 | CC(C)c1nnc2c(NCc3ccccn3)cc(NCc3ccccc3)nn12 [compound 56, N6-benzyl-3-isopropyl-N8-(2-pyridylmethyl)-[1,2,4]triazolo[4,3-b]pyridazine-6,8-diamine]
36 | 0.001 to 0.01 | CCc1nnc2c(NCc3ccccn3)cc(NC(CC)CC)nn12 [compound 59, 3-ethyl-N6-(1-ethylpropyl)-N8-(2-pyridylmethyl)-[1,2,4]triazolo[4,3-b]pyridazine-6,8-diamine]
37 | 0.001 to 0.01 | CCC(CC)Nc1cc(NCc2ccccn2)c2nnc(C3CC3)n2n1 [compound 62, 3-cyclopropyl-N6-(1-ethylpropyl)-N8-(2-pyridylmethyl)-[1,2,4]triazolo[4,3-b]pyridazine-6,8-diamine]
